Settings: amide bond; 32-membered ring

| Substance | ring closure, isolated yield [%] |
| --- | --- |
| Benzyl tert-butyl ((3aS,7R,13aS,22S,26R,32aS)-22-isopropyl-18,21,37-trimethyl-4,8,14,17,20,23,27,33,36,39-decaoxooctatriacontahydro-1H,10H-dipyrido[1,2-a:1′,2′-q]pyrrolo[1,2-j][1,4,7,10,13,17,20,23,26,29]decaazacyclodotriacontine-7,26-diyl)dicarbamate | 62 |
| Benzyl tert-butyl ((4aS,8R,14aS,23S,27R,33aS)-23-isopropyl-19,22,38-trimethyl-5,9,15,18,21,24,28,34,37,40-decaoxotetracontahydro-11H-tripyrido[1,2-a:1′,2′-j:1″,2″-q][1,4,7,10,13,17,20,23,26,29]decaazacyclodotriacontine-8,27-diyl)dicarbamate | 64 |
| Benzyl tert-butyl ((5aS,9R,15aS,24S,28R,34aS)-24-isopropyl-20,23,39-trimethyl-6,10,16,19,22,25,29,35,38,41-decaoxotetracontahydro-1H,12H-azepino[1,2-j]dipyrido[1,2-a:1′,2′-q][1,4,7,10,13,17,20,23,26,29]decaazacyclodotriacontine-9,28-diyl)dicarbamate | 22 |
| Benzyl tert-butyl ((7R,8R,11S,19aS,26R,30S,38aS)-11,30-di((S)-sec-butyl)-8,12,15,31,34-pentamethyl-6,10,13,16,19,25,29,32,35,38-decaoxotetratriacontahydro-2H,6H,10H-dipyrido[2,1-b1: 2′,1′-l][1]oxa[4,7,10,13,17,20,23,26,29]nonaazacyclodotriacontine-7,26-diyl)dicarbamate | 71 |
| Benzyl tert-butyl ((7R,10aS,22aS,29R,32aS,44aS)-6,10,16,22,28,32,38,44-octaoxotetracontahydro-2H,19H-tetrapyrido[1,2-a1: 1′,2′-d: 1″,2″-k: 1′″,2′″-t][1,17]dioxa[4,7,11,14,20,23,27,30]octaazacyclodotriacontine-7,29-diyl)dicarbamate | 44 |
| Benzyl tert-butyl ((7R,10aS,23aS,30R,33aS,46aS)-19,42-dimethyl-6,10,17,20,23,29,33,40,43,46-decaoxotetratetracontahydro-6H,29H-bis(azepino)[1,2-j:1′,2′-z]dipyrido[1,2-a:1′,2′-q][1,4,7,10,13,17,20,23,26,29]decaazacyclodotriacontine-7,30-diyl)dicarbamate | 74 |
| Benzyl tert-butyl ((7R,11S,19aS,26R,30S,38aS)-11,15,30,34-tetraisopropyl-12,31-dimethyl-6,10,13,16,19,25,29,32,35,38-decaoxohexatriacontahydro-2H,6H-dipyrido[1,2-a:1′,2′-q][1,4,7,10,13,17,20,23,26,29]decaazacyclodotriacontine-7,26-diyl)dicarbamate | 94 |
| Benzyl tert-butyl ((7R,11S,19aS,26R,30S,38aS)-11,30-di((S)-sec-butyl)-12,15,31,34-tetramethyl-6,10,13,16,19,25,29,32,35,38-decaoxohexatriacontahydro-2H,6H-dipyrido[1,2-a:1′,2′-q][1,4,7,10,13,17,20,23,26,29]decaazacyclodotriacontine-7,26-diyl)dicarbamate | 90 |
| Benzyl tert-butyl ((7R,11S,19aS,26R,30S,38aS)-11,30-dicyclohexyl-12,15,31,34-tetramethyl-6,10,13,16,19,25,29,32,35,38-decaoxohexatriacontahydro-2H,6H-dipyrido[1,2-a:1′,2′-q][1,4,7,10,13,17,20,23,26,29]decaazacyclodotriacontine-7,26-diyl)dicarbamate | 72 |
| Benzyl tert-butyl ((7R,11S,19aS,26R,30S,38aS)-11,30-diisopropyl-12,15,31,34-tetramethyl-6,10,13,16,19,25,29,32,35,38-decaoxohexatriacontahydro-2H,6H-dipyrido[1,2-a:1′,2′-q][1,4,7,10,13,17,20,23,26,29]decaazacyclodotriacontine-7,26-diyl)dicarbamate | 69 |

Reference: patent US20240376154A1, “BIS-INTERCALATING PEPTIDES, CONJUGATES AND METHODS OF USE” (ZYMEWORKS BC INC., priority 2023, published 2024)
